This note sets out measurements from patent US20040265847A1, “Method for treating Alzheimer's disease” (priority 1991, published 2004).

The test system of one series is PC12 cells. In words: Effect of extracellular APP on zinc uptake by PC12 cells. In kind it is cell-based. Particulars: 10 nM APP, within an hour (=4% in the absence of APP). As for the experimental part:
10^6 PC12 cells were plated for 24 hr in the presence of Dulbecco's modified Eagle's medium (DMEM, N2) supplemented with 8% fetal calf serum (FCS). The medium was then removed and replaced with DMEM with no FCS and incubated for a further 24 hr. The cells were then washed (×2 with DMEM) and incubated with DMEM supplemented with 10 nM 130/110 kDa purified brain membrane-associated APP carrying 20 000 CPM ^65Zn prepared as in FIG. 1 above. Following varying periods of incubation, the cells were harvested, washed, exposed to Pronase digestion to remove surface proteins and then lysed in scintillant and assayed in a beta-counter.

The subject of a further series is APP-degrading protease. In words: Assay of APP-degrading protease (Zn^2+-enhanced degradation of plasma 130 kDa APP). In kind it is biochemical, human.
Series [1] has as its system human brain membrane-derived APP. The series is described as follows: trypsin digestion of human brain membrane-derived APP, Western blot with 22C11. In kind it is biochemical. The text has this:
The proteolytic activity of trypsin (Boehringer, Mannheim) was studied to determine whether it was modulated by a range of doses of heparin (Sigma) and ZnCl2. […] Western blots for APP using the APP binding monoclonal antibody 22C11 were used to monitor the progression of the proteolytic reaction and to detect breakdown products.
(In general: In western blotting, separated proteins are transferred to a membrane and probed.)

A further series has as its system trypsin. In words: tryptic activity on fluorogenic substrate Z-F-R-AMC. In kind it is biochemical. Particulars: range of doses.
In series [2] the target is T1, APP purified from rat brain (Rattus norvegicus, UniProt P08592).
T1 construct: from tissue; host or cells: rat brain
In words: heparin binding to APP in a Biosensor system. Particulars: summary statement, 'may increase'. As for the experimental part: The effect of Zn^2+ in modulating heparin binding to APP was also studied in a Biosensor system. […] This effect was most pronounced and most specific for Zn^2+, as opposed to the absence of divalent cations or the presence of Ca^2+, Mg^2+ or Co^2+, and was most evident when the heparin:APP ratio was low. […] Zn^2+ at 50 nM promoted a =170% increase in heparin binding, the effect saturating at 70 μM.

A further series has as its system plasma APP. The series is described as follows: Effect of zinc loading upon human plasma APP. The series is classed as in vivo. As for the experimental part: (§1) 100 mg elemental zinc (as sulphate, in capsules) was given orally to two individuals with Alzheimer's disease (NINCDS/ADRDC criteria with abnormal plasma APP profiles) and two age-matched controls (with normal plasma APP profiles). Zinc was continued for 7 days and morning fasting bloods collected before the commencement of zinc supplements and three weeks after ceasing the supplement. Western blots with monoclonal antibody 22C11 were carried out on 65 μg of plasma heparin-Sepharose eluate purified from the samples in the manner previously described. The results indicated an increase of 130 kDa species plasma APP relative to the other species present, in other words a shift towards the profile of APP species that is characteristic of Alzheimer's disease. The two control plasma APP profiles came to resemble Alzheimer's disease profiles, and the two Alzheimer's profiles worsened. The proportional increase in the 130 kDa species was approximately 20% per day of zinc supplementation.

A short description of series [3]: Administration of zinc in Alzheimer's disease: neurological response. In kind it is in vivo, human. As for the experimental part: as §1
The subjects from Example 3 were studied.
The two AD volunteers because acutely unwell while on zinc supplementation. […] Eye movement abnormalities and general levels of self care worsened over the period of supplementation. This response was consistent with a neurotoxic response to the zinc supplementation.

T1 sequence (P08592 18-770): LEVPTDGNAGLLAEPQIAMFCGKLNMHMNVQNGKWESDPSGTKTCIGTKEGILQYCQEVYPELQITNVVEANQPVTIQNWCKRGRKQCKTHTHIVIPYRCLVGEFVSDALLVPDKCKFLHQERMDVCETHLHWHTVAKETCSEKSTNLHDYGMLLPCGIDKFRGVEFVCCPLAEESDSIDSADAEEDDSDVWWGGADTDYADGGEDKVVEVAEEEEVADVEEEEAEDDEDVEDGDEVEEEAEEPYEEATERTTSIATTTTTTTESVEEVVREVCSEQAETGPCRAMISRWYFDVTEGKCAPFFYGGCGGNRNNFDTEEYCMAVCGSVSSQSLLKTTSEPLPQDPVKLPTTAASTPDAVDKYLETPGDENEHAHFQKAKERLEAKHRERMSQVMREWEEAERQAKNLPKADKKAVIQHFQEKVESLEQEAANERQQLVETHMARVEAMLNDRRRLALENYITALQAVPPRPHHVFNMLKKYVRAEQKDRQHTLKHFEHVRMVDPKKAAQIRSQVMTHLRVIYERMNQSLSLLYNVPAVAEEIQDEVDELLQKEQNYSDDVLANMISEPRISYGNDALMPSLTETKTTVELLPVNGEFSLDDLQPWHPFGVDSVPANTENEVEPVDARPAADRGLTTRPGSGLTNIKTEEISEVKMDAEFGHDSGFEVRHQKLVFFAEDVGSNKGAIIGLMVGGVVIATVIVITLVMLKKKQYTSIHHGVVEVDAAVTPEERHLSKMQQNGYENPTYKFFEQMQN

For the molecule “APP: 130/110 kDa purified brain membrane-associated amyloid precursor protein carrying ^65Zn”, the “^65Zn counts internalized” value in the series on PC12 cells was 10%.

Consider heparin [reference compound], for which, in the series with APP-degrading protease (young adult control preparation, two hours at 37° C., 20 μM ZnCl2), the “influence on Zn^2+-enhanced APP proteolysis” value is “completely inhibited”. For the same molecule, the “concentration at which protective effect saturated” value in series [1] amounted to 10 µM. Besides, the “heparin concentration causing marked reduction in rate and degree of brain APP degradation by trypsin” value in series [1] (trypsin 1:64, one hour at 37° C.) is on record as 100 nM. In addition, the “effect on tryptic activity” value in the series with trypsin is “left tryptic activity unaltered”.

As for `[Zn]` [zinc], the “zinc concentration required to stimulate proteolysis” value in the series with APP-degrading protease (plasma APP from heparin-Sepharose eluates, 37° C.) came to 20 μm. Further, the “increase of APP affinity for heparin” value in series [2] lay in the range of 5 to 10 fold. Moreover, the “zinc concentration at which the protective effects of heparin are abolished” value in series [1] (summary statement) is “above 1 μm”. In the series on plasma APP (100 mg elemental zinc orally for 7 days, AD and age-matched controls), the “proportional increase in the 130 kDa species of plasma APP” value is recorded as “approximately 20 % per day”. Further, the “persistence of changes in plasma APP profile” value in the series with plasma APP (elderly control, four-fold higher dose over three days) is given as “persisted for three days after ceasing supplementation”. Also, the “return of cognitive function to previous levels after ceasing supplementation” value in series [3] (AD volunteers) is “within two weeks”. Moreover, the “eye movement abnormalities and general levels of self care” value in series [3] (AD volunteers, over the period of supplementation) is recorded as “worsened”. The “mini-mental state examination scores” value in series [3] (Alzheimer's disease volunteers on oral zinc supplementation) was “deteriorating from moderately demented levels to unrecordable”. Besides, the “ill effects in healthy volunteers” value in series [3] (healthy volunteers on zinc supplementation) was “no ill effects”.
